The molecules below were run against T1, human PAH with the R408W mutation (A375 R408W cells) (Homo sapiens, UniProt P00439, R408W) (assay: Cell Based Phenylalanine Flux Assay). Details: A375 R408W cells; 24 hrs with compound, then 20 μM sepiapterin and 800 μM 13C9,15N-Phenylalanine for 4 hours; 13C-Tyrosine by LC-MS; average where tested multiple times.
T1 construct: expressed in transfected cells
T1 sequence (P00439 1-452 R408W): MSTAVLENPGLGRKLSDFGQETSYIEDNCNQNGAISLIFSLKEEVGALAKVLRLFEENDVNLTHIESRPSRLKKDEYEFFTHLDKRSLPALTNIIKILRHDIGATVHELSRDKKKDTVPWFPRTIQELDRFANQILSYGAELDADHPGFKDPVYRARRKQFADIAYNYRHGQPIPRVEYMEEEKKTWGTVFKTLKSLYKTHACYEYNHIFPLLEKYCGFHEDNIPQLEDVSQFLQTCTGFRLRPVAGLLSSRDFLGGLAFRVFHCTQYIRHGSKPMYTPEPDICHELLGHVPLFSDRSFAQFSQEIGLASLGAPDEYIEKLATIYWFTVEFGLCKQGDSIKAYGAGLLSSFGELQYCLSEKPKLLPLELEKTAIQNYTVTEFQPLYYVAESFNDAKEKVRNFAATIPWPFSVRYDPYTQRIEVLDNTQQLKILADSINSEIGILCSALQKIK
Summary of the method: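 Stable R408W PAH A375 cells: 24 h compound pretreatment in duplicate, then 4 h with 800 μM isotope-labelled Phe and 20 μM sepiapterin. Labelled Tyr output by LC-MS; AC50 averaged where repeated.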

Compound | AC50 [nM]
O=C(c1ocnc1CC(F)F)N1CCc2[nH]cnc2[C@@H]1c1nc2cccc(F)c2o1 [Example 864, (R)-(4-(2,2-difluoroethyl)oxazol-5-yl)(4-(7-fluorobenzo[d]oxazol-2-yl)-6,7-dihydro-1H-imidazo[4,5-c]pyridin-5(4H)-yl)methanone] | ≤ 500
O=C(c1cnn2cc(N3CCC(O)CC3)ccc12)N1CCc2[nH]cnc2[C@H]1c1nc2cccc(F)c2o1 [Example 371, (S)-(4-(7-fluorobenzo[d]oxazol-2-yl)-6,7-dihydro-1H-imidazo[4,5-c]pyridin-5(4H)-yl)(6-(4-hydroxypiperidin-1-yl)pyrazolo[1,5-a]pyridin-3-yl)methanone] | 500 to 1000
C[C@@H](O)c1nc(C(F)F)c(C(=O)N2CCc3[nH]cnc3[C@H]2c2nc3cc(F)ccc3o2)o1 [Example 151, (4-(difluoromethyl)-2-((R)-1-hydroxyethyl)oxazol-5-yl)((S)-4-(5-fluorobenzo[d]oxazol-2-yl)-6,7-dihydro-1H-imidazo[4,5-c]pyridin-5(4H)-yl)methanone] | ≤ 500
O=C(c1nnc(-c2ccc(F)cn2)o1)N1CCc2[nH]cnc2[C@H]1c1nc2cc(F)ccc2o1 [Example 33, (S)-(4-(5-fluorobenzo[d]oxazol-2-yl)-6,7-dihydro-1H-imidazo[4,5-c]pyridin-5(4H)-yl)(5-(5-fluoropyridin-2-yl)-1,3,4-oxadiazol-2-yl)methanone] | 500 to 1000
O=C(CCc1cncs1)N1CCc2[nH]cnc2[C@H]1c1nc2cccc(F)c2o1 [Example 409, (S)-1-(4-(7-fluorobenzo[d]oxazol-2-yl)-6,7-dihydro-1H-imidazo[4,5-c]pyridin-5(4H)-yl)-3-(thiazol-5-yl)propan-1-one] | 500 to 1000
O=C(c1ocnc1C(F)F)N1CCc2[nH]cnc2[C@@H]1c1nc2cccc(OC(F)(F)F)c2o1 [Example 531, (R)-(4-(difluoromethyl)oxazol-5-yl)(4-(7-(trifluoromethoxy)benzo[d]oxazol-2-yl)-6,7-dihydro-1H-imidazo[4,5-c]pyridin-5(4H)-yl)methanone] | ≤ 500
O=C(c1nnc(-c2ncccc2F)o1)N1CCc2[nH]cnc2[C@@H]1c1nc2ccccc2o1 [Example 834, (R)-(4-(benzo[d]oxazol-2-yl)-6,7-dihydro-1H-imidazo[4,5-c]pyridin-5(4H)-yl)(5-(3-fluoropyridin-2-yl)-1,3,4-oxadiazol-2-yl)methanone] | 500 to 1000
C[C@@H](O)c1nc(C(F)F)c(C(=O)N2CCc3[nH]cnc3[C@@H]2c2nc3c(F)cccc3o2)o1 [Example 230, (4-(difluoromethyl)-2-((R)-1-hydroxyethyl)oxazol-5-yl)((R)-4-(4-fluorobenzo[d]oxazol-2-yl)-6,7-dihydro-1H-imidazo[4,5-c]pyridin-5(4H)-yl)methanone] | 1000 to 5000
Cn1nc(C(F)F)nc1C(=O)N1CCc2[nH]cnc2[C@@H]1c1nc2cc(F)cc(F)c2o1 [Example 578, (R)-(4-(5,7-difluorobenzo[d]oxazol-2-yl)-6,7-dihydro-1H-imidazo[4,5-c]pyridin-5(4H)-yl)(3-(difluoromethyl)-1-methyl-1H-1,2,4-triazol-5-yl)methanone] | 1000 to 5000
Cc1cccc2nc([C@@H]3c4nc[nH]c4CCN3C(=O)c3nnc(-c4cnn(C)c4)o3)oc12 [Example 565, (S)-(5-(1-methyl-1H-pyrazol-4-yl)-1,3,4-oxadiazol-2-yl)(4-(7-methylbenzo[d]oxazol-2-yl)-6,7-dihydro-1H-imidazo[4,5-c]pyridin-5(4H)-yl)methanone] | 500 to 1000
COc1cccc2oc([C@H]3c4nc[nH]c4CCN3C(=O)c3nc(C)nn3C)nc12 [Example 828, (R)-(1,3-dimethyl-1H-1,2,4-triazol-5-yl)(4-(4-methoxybenzo[d]oxazol-2-yl)-6,7-dihydro-1H-imidazo[4,5-c]pyridin-5(4H)-yl)methanone] | ≥ 5000
O=C(c1oc(-c2ccc(C(F)(F)F)cn2)nc1C(F)F)N1CCc2[nH]cnc2[C@@H]1c1nc2cc(F)ccc2o1 [Example 443, (R)-(4-(difluoromethyl)-2-(5-(trifluoromethyl)pyridin-2-yl)oxazol-5-yl)(4-(5-fluorobenzo[d]oxazol-2-yl)-6,7-dihydro-1H-imidazo[4,5-c]pyridin-5(4H)-yl)methanone] | 500 to 1000
Cc1cc(F)c2oc([C@H]3c4nc[nH]c4CCN3C(=O)c3ocnc3C(F)F)nc2c1 [Example 502, (R)-(4-(difluoromethyl)oxazol-5-yl)(4-(7-fluoro-5-methylbenzo[d]oxazol-2-yl)-6,7-dihydro-1H-imidazo[4,5-c]pyridin-5(4H)-yl)methanone] | ≤ 500
CC(C)(O)c1nc(C2CC2)c(C(=O)N2CCc3[nH]cnc3[C@H]2c2nc3cc(F)ccc3o2)o1 [Example 557, (S)-(4-cyclopropyl-2-(2-hydroxypropan-2-yl)oxazol-5-yl)(4-(5-fluorobenzo[d]oxazol-2-yl)-6,7-dihydro-1H-imidazo[4,5-c]pyridin-5(4H)-yl)methanone] | ≤ 500

The next lines start with the values.

AC50 [nM] | Compound
500 to 1000 | O=C(c1ccnn1C(F)(F)F)N1CCc2[nH]cnc2[C@H]1c1nc2cc(F)ccc2o1 [Example 261, (S)-(4-(5-fluorobenzo[d]oxazol-2-yl)-6,7-dihydro-1H-imidazo[4,5-c]pyridin-5(4H)-yl)(1-(trifluoromethyl)-1H-pyrazol-5-yl)methanone]
500 to 1000 | CC(C)(O)c1nc(CF)c(C(=O)N2CCc3[nH]cnc3[C@H]2c2nc3cc(F)ccc3o2)o1 [Example 211, (S)-(4-(5-fluorobenzo[d]oxazol-2-yl)-6,7-dihydro-1H-imidazo[4,5-c]pyridin-5(4H)-yl)(4-(fluoromethyl)-2-(2-hydroxypropan-2-yl)oxazol-5-yl)methanone]
500 to 1000 | O=C(c1ccnn1C(F)(F)F)N1CCc2[nH]cnc2[C@@H]1c1nc2cc(F)ccc2o1 [Example 262, (R)-(4-(5-fluorobenzo[d]oxazol-2-yl)-6,7-dihydro-1H-imidazo[4,5-c]pyridin-5(4H)-yl)(1-(trifluoromethyl)-1H-pyrazol-5-yl)methanone]
≤ 500 | Cc1ccc2oc([C@@H]3c4nc[nH]c4CCN3C(=O)c3nnc(-c4ccn(C)n4)o3)nc2c1 [Example 389, (S)-(5-(1-methyl-1H-pyrazol-3-yl)-1,3,4-oxadiazol-2-yl)(4-(5-methylbenzo[d]oxazol-2-yl)-6,7-dihydro-1H-imidazo[4,5-c]pyridin-5(4H)-yl)methanone]
1000 to 5000 | CC(O)c1nc(Cl)c(C(=O)N2CCc3[nH]cnc3[C@@H]2c2nc3cc(F)ccc3o2)o1 (single isomer, unassigned) [Example 233]
500 to 1000 | O=C(c1nnc(-c2cccnc2)o1)N1CCc2[nH]cnc2[C@H]1c1nc2cc(F)ccc2o1 [Example 399, (S)-(4-(5-fluorobenzo[d]oxazol-2-yl)-6,7-dihydro-1H-imidazo[4,5-c]pyridin-5(4H)-yl)(5-(pyridin-3-yl)-1,3,4-oxadiazol-2-yl)methanone]
1000 to 5000 | CC(O)c1nc(Br)c(C(=O)N2CCc3[nH]cnc3[C@H]2c2nc3cc(F)ccc3o2)o1 (single isomer, unassigned) [Example 225]
500 to 1000 | Cc1nc(-c2ccccn2)oc1C(=O)N1CCc2[nH]cnc2[C@H]1c1nc2cc(F)ccc2o1 [Example 31, (S)-(4-(5-fluorobenzo[d]oxazol-2-yl)-6,7-dihydro-1H-imidazo[4,5-c]pyridin-5(4H)-yl)(4-methyl-2-(pyridin-2-yl)oxazol-5-yl)methanone]
1000 to 5000 | O=C(c1nnc(C2CC2)o1)N1CCc2[nH]cnc2[C@@H]1c1nc2cc(F)ccc2o1 [Example 16, (R)-(5-cyclopropyl-1,3,4-oxadiazol-2-yl)(4-(5-fluorobenzo[d]oxazol-2-yl)-6,7-dihydro-1H-imidazo[4,5-c]pyridin-5(4H)-yl)methanone]
1000 to 5000 | COc1ccc(-c2nnc(C(=O)N3CCc4[nH]cnc4[C@@H]3c3nc4cc(C)ccc4o3)o2)nc1 [Example 678, (R)-(5-(5-methoxypyridin-2-yl)-1,3,4-oxadiazol-2-yl)(4-(5-methylbenzo[d]oxazol-2-yl)-6,7-dihydro-1H-imidazo[4,5-c]pyridin-5(4H)-yl)methanone]

Same assay, conditions: A375 cells expressing R408W PAH; 24 hrs with compound, then 20 μM sepiapterin and 800 μM 13C9,15N-Phenylalanine for 4 hours; 13C-Tyrosine by LC-MS; average where tested multiple times

Compound | AC50 [nM]
O=C(c1ccn(CC(F)F)n1)N1CCc2[nH]cnc2C1c1nc2cccc(F)c2o1 (centres unmarked) | 1000 to 5000
Cc1nc(N2CCC(F)CC2)oc1C(=O)N1CCc2[nH]cnc2C1c1nc2cc(F)ccc2o1 (centres unmarked) | 1000 to 5000
O=C(c1cnn2cc(CN3CC(F)C3)ccc12)N1CCc2[nH]cnc2[C@@H]1c1nc2cc(F)ccc2o1 (single isomer, unassigned) | ≥ 5000
CC(C)(C)OC(=O)N1CCN(c2ccc3c(C(=O)N4CCc5[nH]cnc5C4c4nc5cc(F)ccc5o4)cnn3c2)CC1 (single isomer, unassigned) [4R enantiomer of tert-butyl 4-{3-[4-(5-fluoro-1,3-benzoxazol] | ≥ 5000

The next lines start with the values.

AC50 [nM] | Compound
≥ 5000 | Cc1ccc2nc(C3c4nc[nH]c4CCN3C(=O)c3nnc(C)o3)oc2c1 (centres unmarked)
≥ 5000 | NCc1ccc2c(C(=O)N3CCc4[nH]cnc4C3c3nc4cc(F)ccc4o3)cnn2c1 (centres unmarked)
1000 to 5000 | Cc1ccc2oc(C3c4nc[nH]c4CCN3C(=O)c3cnco3)nc2c1 (centres unmarked)
≥ 5000 | O=C(C1CC1(F)F)N1CCc2[nH]cnc2C1c1nc2cc(F)ccc2o1 (centres unmarked)
